Counter-ions that a name gives are not always drawn.
Each molecule was assayed against T1, full length SGK1 (Homo sapiens, UniProt O00141) (assay: SGK1 inhibition Assay A (Caliper LabChip electrophoretic separation of fluorescent peptide substrate and phosphorylated product)). Conditions: Assay A; 20 μM ATP, 40 min incubation; read-out: SGK1 IC50.
T1 construct: 125 μM full length SGK1 (Life Technologies Part #PR7358A); purchased Life Technologies PR7358A
T1 sequence (O00141 1-431): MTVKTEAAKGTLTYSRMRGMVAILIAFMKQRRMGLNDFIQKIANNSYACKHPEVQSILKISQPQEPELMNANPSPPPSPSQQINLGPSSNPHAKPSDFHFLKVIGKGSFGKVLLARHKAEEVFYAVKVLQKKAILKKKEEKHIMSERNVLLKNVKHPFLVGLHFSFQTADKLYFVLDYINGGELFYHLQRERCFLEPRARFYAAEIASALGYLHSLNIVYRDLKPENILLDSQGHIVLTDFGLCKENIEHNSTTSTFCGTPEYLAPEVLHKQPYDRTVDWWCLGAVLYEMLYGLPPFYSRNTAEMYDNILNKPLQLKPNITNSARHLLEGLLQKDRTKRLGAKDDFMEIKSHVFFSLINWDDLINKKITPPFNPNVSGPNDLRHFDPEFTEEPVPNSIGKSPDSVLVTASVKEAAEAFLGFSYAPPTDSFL
Format: biochemical

Row | SMILES | IC50 [nM]
1 | COC(=O)c1ccc(-c2cc(N3CCC[C@@H](NC(=O)c4ccc(Cl)s4)C3)c3c(N)ncnn23)n1C [Example 238, methyl 5-{4-amino-5-[(3R)-3-(5-chlorothiophene-2-amido)piperidin-1-yl]pyrrolo[2,1-f] [1,2,4]triazin-7-yl}-1-methyl-1H-pyrrole-2-carboxylate] | 91
2 | Nc1ncnn2c(C3=CCC(F)(F)CC3)cc(N3CCC[C@@H](NC(=O)c4ccc(Cl)s4)C3)c12 [Example 239] | 43
3 | CC(O)c1cccc(-c2cc(N3CCC[C@@H](NC(=O)c4ccc(Cl)s4)C3)c3c(N)ncnn23)c1 (stereo partly drawn) [Example 240, N-[(3R)-1-{4-amino-7-[3-(1-hydroxyethyl)phenyl]pyrrolo[2,1-f][1,2,4]triazin-5-yl}piperidin-3-yl]-5-chlorothiophene-2-carboxamide] | 14
4 | N#Cc1ccc(-c2cc(N3CCC[C@@H](NC(=O)c4ccc(Cl)s4)C3)c3c(N)ncnn23)cn1 [Example 241] | 0.3
5 | CNC(=O)c1ccc(-c2cc(N3CCC[C@@H](NC(=O)c4ccc(Cl)s4)C3)c3c(N)ncnn23)cn1 [Example 242, (R)-5-(4-amino-5-(3-(5-chlorothiophene-2-carboxamido)piperidin-1-yl)pyrrolo[2,1-f][1,2,4]triazin-7-yl)-N-methylpicolinamide] | 5
6 | N#Cc1ccc(-c2cc(N3CCC[C@@H](NC(=O)c4ccc(Cl)s4)C3)c3c(N)ncnn23)cc1F [Example 243, (R)-N-(1-(4-amino-7-(4-cyano-3-fluorophenyl)pyrrolo[2,1-f][1,2,4]triazin-5-yl)piperidin-3-yl)-5-chlorothiophene-2-carboxamide, TFA] | 1
7 | Nc1ncnn2c(-c3ccc4nnnn4c3)cc(N3CCC[C@@H](NC(=O)c4ccc(Cl)s4)C3)c12 [Example 244, (R)-N-(1-(4-amino-7-(tetrazolo[1,5-a]pyridin-6-yl)pyrrolo[2,1-f][1,2,4]triazin-5-yl)piperidin-3-yl)-5-chlorothiophene-2-carboxamide] | 1
8 | Nc1ncnn2c(-c3ccc(-n4cnnn4)c(F)c3)cc(N3CCC[C@@H](NC(=O)c4ccc(Cl)s4)C3)c12 [Example 245, (R)-N-(1-(4-amino-7-(3-fluoro-4-(1H-tetrazol-1-yl)phenyl)pyrrolo[2,1-f][1,2,4]triazin-5-yl)piperidin-3-yl)-5-chlorothiophene-2-carboxamide] | 1
9 | Nc1ncnn2c(-c3cnc4ncnn4c3)cc(N3CCC[C@@H](NC(=O)c4ccc(Cl)s4)C3)c12 [Example 246] | 13
10 | Nc1ncnn2c(-c3ccc4ncnn4c3)cc(N3CCC[C@@H](NC(=O)c4ccc(Cl)s4)C3)c12 [Example 247] | 12
11 | Nc1ncnn2c(-c3ccc(C(F)F)nc3)cc(N3CCC[C@@H](NC(=O)c4ccc(Cl)s4)C3)c12 [Example 248, (R)-N-(1-(4-amino-7-(6-(difluoromethyl)pyridin-3-yl)pyrrolo[2,1-f][1,2,4]triazin-5-yl)piperidin-3-yl)-5-chlorothiophene-2-carboxamide, TFA] | 3
12 | Nc1ncnn2c(-c3ccc(-n4cnnn4)cc3)cc(N3CCC[C@@H](NC(=O)c4ccc(Cl)s4)C3)c12 [Example 249, (R)-N-(1-(7-(4-(1H-tetrazol-1-yl)phenyl)-4-aminopyrrolo[2,1-f][1,2,4]triazin-5-yl)piperidin-3-yl)-5-chlorothiophene-2-carboxamide, TFA] | 1
13 | N#Cc1ncn(-c2ccc(-c3cc(N4CCC[C@@H](NC(=O)c5ccc(Cl)s5)C4)c4c(N)ncnn34)cn2)n1 [Example 250, (R)-N-(1-(4-amino-7-(6-(3-cyano-1H-1,2,4-triazol-1-yl)pyridin-3-yl)pyrrolo[2,1-f][1,2,4]triazin-5-yl)piperidin-3-yl)-5-chlorothiophone-2-carboxamide, TFA] | 3
14 | Nc1ncnn2c(-c3ccc(-n4cncn4)nc3)cc(N3CCC[C@@H](NC(=O)c4ccc(Cl)s4)C3)c12 [Example 251, (R)-N-(1-(7-(6-(1H-1,2,4-triazol-1-yl)pyridin-3-yl)-4-aminopyrrolo[2,1-f][1,2,4]triazin-5-yl)piperidin-3-yl)-5-chlorothiophene-2-carboxamide, TFA] | 1
15 | Nc1ncnn2c(-c3ccc4nncn4c3)cc(N3CCC[C@@H](NC(=O)c4ccc(Cl)s4)C3)c12 [Example 252] | 4
16 | Nc1ncnn2c(-c3ccn4nnnc4c3)cc(N3CCC[C@@H](NC(=O)c4ccc(Cl)s4)C3)c12 [Example 253, (R)-N-(1-(4-amino-7-(tetrazolo[1,5-a]pyridin-7-yl)pyrrolo[2,1-f][1,2,4]triazin-5-yl)piperidin-3-yl)-5-chlorothiophene-2-carboxamide] | 2
17 | Cc1nnc2ccc(-c3cc(N4CCC[C@@H](NC(=O)c5ccc(Cl)s5)C4)c4c(N)ncnn34)cn12 [Example 254] | 23
18 | CC(=O)N1CC=C(c2cc(N3CCC[C@@H](NC(=O)c4ccc(C)s4)C3)c3c(N)ncnn23)C1 [Example 255, (R)—N-(1-(7-(1-acetyl-2,5-dihydro-1H-pyrrol-3-yl)-4-aminopyrrolo[2,1-f][1,2,4]triazin-5-yl)piperidin-3-yl)-5-methylthiophene-2-carboxamide] | 10
19 | COc1cc(C(=O)N[C@@H]2CCCN(c3cc(C4=CCN(C(C)=O)C4)n4ncnc(N)c34)C2)sn1 [Example 256, (R)—N-(1-(7-(1-acetyl-2,5-dihydro-1H-pyrrol-3-yl)-4-aminopyrrolo[2,1-f][1,2,4]triazin-5-yl)piperidin-3-yl)-3-methoxyisothiazole-5-carboxamide] | 0.5
20 | CC(=O)N1CC=C(c2cc(N3CCC[C@@H](NC(=O)c4cccc(-n5cnnc5)c4)C3)c3c(N)ncnn23)C1 [Example 257, (R)—N-(1-(7-(1-acetyl-2,5-dihydro-1H-pyrrol-3-yl)-4-aminopyrrolo[2,1-f][1,2,4]triazin-5-yl)piperidin-3-yl)-3-(4H-1,2,4-triazol-4-yl)benzamide, TFA] | 65
21 | COc1cnccc1C(=O)N[C@@H]1CCCN(c2cc(C3=CCN(C(C)=O)C3)n3ncnc(N)c23)C1 [Example 258, (R)—N-(1-(7-(1-acetyl-2,5-dihydro-1H-pyrrol-3-yl)-4-aminopyrrolo[2,1-f][1,2,4]triazin-5-yl)piperidin-3-yl)-3-methoxyisonicotinamide] | 67
22 | COCC(=O)N1CC=C(c2cc(N3CCC[C@@H](NC(=O)c4sc(Cl)cc4OCCN4CCOCC4)C3)c3c(N)ncnn23)C1 [Example 259, (R)—N-(1-(4-amino-7-(1-(2-methoxyacetyl)-2,5-dihydro-1H-pyrrol-3-yl)pyrrolo[2,1-f][1,2,4]triazin-5-yl)piperidin-3-yl)-5-chloro-3-(2-morpholinoethoxy)thiophene-2-carboxamide] | 28
23 | COC(C(=O)N1CC=C(c2cc(N3CCC[C@@H](NC(=O)c4sc(Cl)cc4OCCN4CCOCC4)C3)c3c(N)ncnn23)C1)C1CC1 (stereo partly drawn) [Example 260, N-((3R)-1-(4-amino-7-(1-(2-cyclopropyl-2-methoxyacetyl)-2,5-dihydro-1H-pyrrol-3-yl)pyrrolo[2,1-f] [1,2,4]triazin-5-yl)piperidin-3-yl)-5-chloro-3-(2-morpholinoethoxy)thiophene-2-carboxamide] | 48
